In ChEMBL document CHEMBL6096698, “Discovery of a Selective and Orally Bioavailable RET Degrader with Effectiveness in Various Mutations” (J Med Chem, 2025):
Activity calls are given as the source filed them. The rule behind the calls is not given here.

Experiments:
[1] = Induction of apoptosis in mouse BaF3 cells stably expressing KIF5B-RET G810C mutant assessed as viable cells at 20 nM incubated for 48 hrs by Annexin V-FITC/PI staining based flow cytometry (reference value: 92.21 %); type: functional; settings: read-out: Activity
BaF3 [2] = experiment: Antiproliferative activity against mouse BaF3 cells stably expressing CCDC6-RET incubated for 72 hrs by CCK8 assay; type: functional, cell-based; settings: BaF3, 72 h
[3] = Induction of apoptosis in mouse BaF3 cells stably expressing KIF5B-RET G810C mutant assessed as early apoptotic cells at 40 nM incubated for 48 hrs by Annexin V-FITC/PI staining based flow cytometry (reference value: 0.86 %); type: functional
[4] = Induction of apoptosis in mouse BaF3 cells stably expressing KIF5B-RET G810C mutant assessed as late apoptotic cells at 10 nM incubated for 48 hrs by Annexin V-FITC/PI staining based flow cytometry (reference value: 5.99 %); type: functional
BaF3 [5] = experiment: PROTAC activity at CRBN/KIF5B-RET (unknown origin) expressed in mouse BaF3 cells assessed as induction of RET degradation at 10 nM incubated for 24 hrs by immunoblot analysis; type: cell-based
BaF3 [6] = experiment: PROTAC activity at CRBN/KIF5B-RET (unknown origin) expressed in mouse BaF3 cells assessed as induction of RET degradation at 10 nM incubated for 24 hrs in presence of MG132 by immunoblot analysis; type: cell-based
[7] = Toxicity in BALB/c nu/nu mouse implanted with mouse BaF3 cells stably expressing KIF5B-RET G810C mutant assessed as body weight loss at 10 mg/kg, po bid treated for 10 days; type: organism-based; settings: in vivo, 240 h, time 10 day
[8] = molecular target: Proto-oncogene tyrosine-protein kinase receptor Ret (Homo sapiens, UniProt P07949); experiment: Inhibition of RET (unknown origin) preincubated for 10 mins followed by substrate/ATP addition measured after 30 mins by HTRF assay
Proto-oncogene tyrosine-protein kinase receptor Ret, sequence (P07949 whole entry): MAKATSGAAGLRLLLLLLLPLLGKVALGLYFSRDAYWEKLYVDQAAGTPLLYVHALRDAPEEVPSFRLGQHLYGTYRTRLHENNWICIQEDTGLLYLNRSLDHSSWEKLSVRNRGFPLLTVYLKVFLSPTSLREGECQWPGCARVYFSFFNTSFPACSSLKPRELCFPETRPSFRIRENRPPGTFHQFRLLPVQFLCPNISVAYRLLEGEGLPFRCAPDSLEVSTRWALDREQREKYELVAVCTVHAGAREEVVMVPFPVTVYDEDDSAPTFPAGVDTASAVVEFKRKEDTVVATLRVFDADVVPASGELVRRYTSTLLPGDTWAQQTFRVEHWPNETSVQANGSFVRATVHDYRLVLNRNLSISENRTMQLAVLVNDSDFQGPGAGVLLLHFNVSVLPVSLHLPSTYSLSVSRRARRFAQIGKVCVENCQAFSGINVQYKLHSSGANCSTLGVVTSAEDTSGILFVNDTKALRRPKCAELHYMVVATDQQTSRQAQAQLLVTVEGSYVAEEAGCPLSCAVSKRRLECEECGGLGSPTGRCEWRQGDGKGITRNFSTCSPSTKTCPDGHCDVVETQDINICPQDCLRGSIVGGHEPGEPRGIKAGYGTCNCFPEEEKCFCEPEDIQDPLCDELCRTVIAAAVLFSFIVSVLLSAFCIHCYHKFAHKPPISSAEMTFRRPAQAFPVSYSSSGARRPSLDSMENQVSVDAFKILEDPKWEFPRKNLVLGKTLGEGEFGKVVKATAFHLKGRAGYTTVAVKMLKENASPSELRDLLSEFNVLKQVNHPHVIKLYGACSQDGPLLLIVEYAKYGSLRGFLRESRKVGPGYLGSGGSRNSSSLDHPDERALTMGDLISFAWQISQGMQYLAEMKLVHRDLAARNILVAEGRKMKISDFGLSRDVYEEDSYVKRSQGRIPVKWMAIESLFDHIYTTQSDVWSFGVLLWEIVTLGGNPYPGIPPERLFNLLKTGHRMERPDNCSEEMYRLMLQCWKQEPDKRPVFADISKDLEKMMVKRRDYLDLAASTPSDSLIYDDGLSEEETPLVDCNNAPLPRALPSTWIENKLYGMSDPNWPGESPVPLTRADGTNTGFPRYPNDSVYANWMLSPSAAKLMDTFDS

[9] = Clearance in Sprague-Dawley rat at 1 mg/kg, iv measured for 24 hrs by LC-MS/MS analysis; type: ADME, organism-based; settings: in vivo
[10] = AUC (0 to infinity) in Sprague-Dawley rat at 10 mg/kg, po measured for 24 hrs by LC-MS/MS analysis; type: ADME, organism-based; settings: in vivo
BaF3 [11] = experiment: Antiproliferative activity against mouse BaF3 cells stably expressing CCDC6-RET V804M mutant incubated for 72 hrs by CCK8 assay; type: functional, cell-based; settings: BaF3, 72 h
[12] = Induction of apoptosis in mouse BaF3 cells stably expressing KIF5B-RET G810C mutant assessed as apoptotic cells at 20 nM incubated for 48 hrs by Annexin V-FITC/PI staining based flow cytometry (reference value: 6.7 %); type: functional
[13] = Toxicity in BALB/c nu/nu mouse implanted with mouse BaF3 cells stably expressing KIF5B-RET G810C mutant assessed as body weight loss at 10 mg/kg, po qd treated for 10 days; type: organism-based; settings: in vivo, 240 h, time 10 day
BaF3 [14] = experiment: PROTAC activity at CRBN/KIF5B-RET G810C mutant (unknown origin) expressed in mouse BaF3 cells assessed as induction of RET G810C mutant degradation at 1 to 100 nM incubated for 24 hrs by immunoblot analysis relative to control; type: cell-based; settings: dose 1-100 nM
[15] = Half life in Sprague-Dawley rat at 1 mg/kg, iv measured for 24 hrs by LC-MS/MS analysis; type: ADME, organism-based; settings: in vivo
BaF3 [16] = experiment: Antitumor activity against mouse BaF3 cells stably expressing KIF5B-RET G810C mutant implanted in BALB/c nu/nu mouse at 10 mg/kg, po qd treated for 10 days relative to control; type: functional; settings: BaF3, 240 h, time 10 day, read-out: TGI
[17] = Oral bioavailability in Sprague-Dawley rat at 10 mg/kg measured for 24 hrs by LC-MS/MS analysis; type: ADME, organism-based; settings: in vivo
BaF3 [18] = experiment: PROTAC activity at CRBN/KIF5B-RET (unknown origin) expressed in mouse BaF3 cells assessed as induction of RET degradation at 10 nM incubated for 24 hrs in presence of MLN4924 by immunoblot analysis; type: cell-based
[19] = Induction of apoptosis in mouse BaF3 cells stably expressing KIF5B-RET G810C mutant assessed as early apoptotic cells at 10 nM incubated for 48 hrs by Annexin V-FITC/PI staining based flow cytometry (reference value: 0.86 %); type: functional
[20] = Volume of distribution at steady state in Sprague-Dawley rat at 1 mg/kg, iv measured for 24 hrs by LC-MS/MS analysis; type: ADME, organism-based; settings: in vivo, read-out: Vdss
MCF7 = experiment: Cytotoxicity against human MCF7 cells; type: functional, cell-based
[21] = Induction of apoptosis in mouse BaF3 cells stably expressing KIF5B-RET G810C mutant assessed as late apoptotic cells at 40 nM incubated for 48 hrs by Annexin V-FITC/PI staining based flow cytometry (reference value: 5.99 %); type: functional
BaF3 [22] = experiment: Antiproliferative activity against mouse BaF3 cells stably expressing CCDC6-RET G810R mutant incubated for 72 hrs by CCK8 assay; type: functional, cell-based; settings: BaF3, 72 h
BaF3 [23] = experiment: PROTAC activity at CRBN/KIF5B-RET (unknown origin) expressed in mouse BaF3 cells assessed as induction of RET degradation at 20 nM incubated for 8 to 24 hrs by immunoblot analysis; type: cell-based; settings: time 8-24 hrs

Structure (SMILES): COc1ccc(CN2C3CC2CN(c2ccc(-c4cc(N5CCC(N6CCN(CCCC#Cc7cccc8c7CN(C7CCC(=O)NC7=O)C8=O)CC6)CC5)cn5ncc(C#N)c45)cn2)C3)cn1 (centres undefined)
- viability at 0.02 µM [1]: 43.4%
- IC50 (BaF3 [2]): 2.4 nM
- Activity [3]: 56.22%
- Activity [4]: 15.87%
- Activity (BaF3 [5]): Active
- Activity (BaF3 [6]): inactive
- Activity [7]: Non-toxic
- IC50 [8]: 0.371 nM
- clearance [9]: 52.8 mL/min/kg
- AUC(0-inf) [10]: 1190 ng·h/mL
- IC50 (BaF3 [11]): 4.5 nM
- Activity [12]: 55.4%
- Activity [13]: Non-toxic
- Emax (BaF3 [14]): 91%
- half-life [15]: 6.98 h
- inhibition in vivo at 10 mg/kg (BaF3 [16]): 62.3%
- bioavailability [17]: 40.3%
- Activity (BaF3 [18]): inactive
- Activity [19]: 18.33%
- Vd [20]: 31.9 L/kg
- IC50 (MCF7): > 5000 nM
- Activity [21]: 15.31%
- IC50 (BaF3 [22]): 122 nM
- Activity (BaF3 [23]): Active
